By IC50 is commonly meant the concentration that inhibits the measured activity by half. Low readings indicate inhibition by little substance, high ones a need for much substance.

Where only a bound is given, the exact number is not on record here.

Experiment [1] relates to HL-1. In words: protection of cardiomyocytes from stress damage, SAR follow-up, cell-based, panel, H9c2 and HL-1, H2O2, 2-deoxyglucose, ATP luminescence (AID 651642).
Experiment [2] deals with H9c2. Described as above.
The mark [3] stands for this setting: H9c2/HL-1 cardiomyocyte 2-deoxyglucose damage, mean of runs, with 2-deoxyglucose, mean IC50 across panel.
Where [4] appears, read: H9c2/HL-1 cardiomyocyte 2-deoxyglucose damage, run 1, with 2-deoxyglucose.
The mark [5] stands for this setting: H9c2/HL-1 cardiomyocyte 2-deoxyglucose damage, run 2, with 2-deoxyglucose.
Where [6] appears, read: H9c2/HL-1 cardiomyocyte 2-deoxyglucose damage, run 3, with 2-deoxyglucose.
The mark [7] stands for this setting: H9c2/HL-1 cardiomyocyte 2-deoxyglucose damage, run 4, with 2-deoxyglucose.
Setting [8] is: H9c2/HL-1 cardiomyocyte H2O2 oxidative damage, mean of runs, with H2O2, mean IC50 across panel.
[9] abbreviates: H9c2/HL-1 cardiomyocyte H2O2 oxidative damage, run 1, with H2O2.
[10] abbreviates: H9c2/HL-1 cardiomyocyte H2O2 oxidative damage, run 2, with H2O2.
Where [11] appears, read: H9c2/HL-1 cardiomyocyte H2O2 oxidative damage, run 3, with H2O2.
Where [12] appears, read: H9c2/HL-1 cardiomyocyte H2O2 oxidative damage, run 4, with H2O2.

On to `COc1cc(-c2cc(C(=O)Nc3cccc(C(=O)NCc4ccccc4)c3)c3ccccc3n2)cc(OC)c1OC`, for which the IC50 came to 1.36 µM in experiment [1] (setting [3]); 0.74 µM in experiment [1] (setting [4]); 0.813 µM in experiment [1] (setting [5]); 1.85 µM in experiment [1] (setting [6]); 2.05 µM in experiment [1] (setting [7]); 3.33 µM in experiment [1] (setting [8]). For the same molecule, the IC50 is 1.7 µM in experiment [1] (setting [9]); 2.25 µM in experiment [1] (setting [10]); 2.4 µM in experiment [1] (setting [11]); 6.96 µM in experiment [1] (setting [12]); 3.38 µM in experiment [2] (setting [3]); 3.81 µM in experiment [2] (setting [4]). In addition, the IC50 in experiment [2] (setting [5]) was 4.57 µM; in experiment [2] (setting [6]) it was 2.32 µM; in experiment [2] (setting [7]), 2.81 µM; in experiment [2] (setting [8]) it was 1.13 µM; in experiment [2] (setting [9]) it was 1.54 µM; in experiment [2] (setting [10]), 1.62 µM. Further, the concentration for half-maximal inhibition (IC50) is 0.678 µM in experiment [2] (setting [11]) and 0.686 µM in experiment [2] (setting [12]).
For `COc1cc(-c2cc(C(=O)NCC(=O)Nc3ccc(C(C)=O)cc3)c3ccccc3n2)cc(OC)c1OC`, the IC50 in experiment [1] (setting [4]) was more than 79 µM; in experiment [1] (setting [5]) it was more than 79 µM; in experiment [1] (setting [6]) it was 6.28 µM; in experiment [1] (setting [7]), 7.65 µM; in experiment [1] (setting [9]) it was more than 79 µM; in experiment [1] (setting [10]), more than 79 µM. Besides, the IC50 in experiment [1] (setting [11]) was 7.43 µM; in experiment [1] (setting [12]) it was 9.32 µM; in experiment [2] (setting [4]) it was more than 79 µM; in experiment [2] (setting [5]), more than 79 µM; in experiment [2] (setting [6]) it was 6.74 µM; in experiment [2] (setting [7]), 8.41 µM. For the same molecule, the IC50 in experiment [2] (setting [9]) is more than 79 µM; in experiment [2] (setting [10]), more than 79 µM; in experiment [2] (setting [11]) it was 1.62 µM; in experiment [2] (setting [12]), 1.71 µM.
As for `COc1ccc2nc(-c3cc(OC)c(OC)c(OC)c3)cc(C(=O)Nc3cccc(C(C)=O)c3)c2c1`, the IC50 in experiment [1] (setting [4]) is 6.04 µM; in experiment [1] (setting [5]) it was 6.84 µM; in experiment [1] (setting [6]) it was more than 79 µM; in experiment [1] (setting [7]), more than 79 µM; in experiment [1] (setting [9]), more than 79 µM; in experiment [1] (setting [10]), more than 79 µM. For the same molecule, the IC50 was 3.8 µM in experiment [1] (setting [11]); 8.57 µM in experiment [1] (setting [12]); more than 79 µM in experiment [2] (setting [4]); 27.9 µM in experiment [2] (setting [5]); more than 79 µM in experiment [2] (setting [6]); more than 79 µM in experiment [2] (setting [7]). Further, the IC50 in experiment [2] (setting [9]) was 5.31 µM; in experiment [2] (setting [10]), 8.25 µM; in experiment [2] (setting [11]) it was more than 79 µM; in experiment [2] (setting [12]) it was 2.94 µM.
`COc1ccc2c(c1OC)C(=O)N1c3ccccc3C(=O)N(Cc3ccccc3F)C21` (centres undefined): the IC50 in experiment [1] (setting [3]) was 7.16 µM; in experiment [1] (setting [4]) it was 2.26 µM; in experiment [1] (setting [5]) it was 2.31 µM; in experiment [1] (setting [6]) it was 8.41 µM; in experiment [1] (setting [7]), 15.7 µM; in experiment [1] (setting [8]) it was more than 79 µM. The IC50 in experiment [1] (setting [9]) is more than 79 µM; in experiment [1] (setting [10]) it was more than 79 µM; in experiment [1] (setting [11]) it was more than 79 µM; in experiment [1] (setting [12]), more than 79 µM; in experiment [2] (setting [3]), 34.3 µM; in experiment [2] (setting [4]) it was 36.6 µM. The IC50 is 37.9 µM in experiment [2] (setting [5]); 31.3 µM in experiment [2] (setting [6]); 31.6 µM in experiment [2] (setting [7]); 1.35 µM in experiment [2] (setting [9]); 2.03 µM in experiment [2] (setting [10]); more than 79 µM in experiment [2] (setting [11]). This molecule also returned an IC50 in experiment [2] (setting [12]) of more than 79 µM.
Consider `COc1cc(-c2cc(C(=O)NCC(=O)Nc3cccc(C(C)=O)c3)c3cccc(Cl)c3n2)cc(OC)c1OC`, for which the IC50 in experiment [1] (setting [3]) was 6.58 µM; in experiment [1] (setting [4]), 5.45 µM; in experiment [1] (setting [5]), 9.03 µM; in experiment [1] (setting [6]), 5.38 µM; in experiment [1] (setting [7]) it was 6.47 µM; in experiment [1] (setting [9]) it was more than 79 µM. For the same molecule, the IC50 is more than 79 µM in experiment [1] (setting [10]); 4.06 µM in experiment [1] (setting [11]); 6.82 µM in experiment [1] (setting [12]); more than 79 µM in experiment [2] (setting [4]); 32.2 µM in experiment [2] (setting [5]); 7.32 µM in experiment [2] (setting [6]). Further, the IC50 amounted to 8.12 µM in experiment [2] (setting [7]); 0.651 µM in experiment [2] (setting [8]); 2.72 µM in experiment [2] (setting [9]); 3.44 µM in experiment [2] (setting [10]); 2.56 µM in experiment [2] (setting [11]); 3.46 µM in experiment [2] (setting [12]).
`COc1ccc2nc(-c3cc(OC)c(OC)c(OC)c3)cc(C(=O)NCC(=O)Nc3ccc(C(C)=O)cc3)c2c1`: the half-inhibitory concentration (IC50) in experiment [1] (setting [3]) was 4.33 µM; in experiment [1] (setting [4]) it was 2.44 µM; in experiment [1] (setting [5]), 3 µM; in experiment [1] (setting [6]) it was 4.63 µM; in experiment [1] (setting [7]), 7.24 µM; in experiment [1] (setting [8]), 5.81 µM. In addition, the IC50 is 6.12 µM in experiment [1] (setting [9]); 7.42 µM in experiment [1] (setting [10]); 4.42 µM in experiment [1] (setting [11]); 5.28 µM in experiment [1] (setting [12]); 5.3 µM in experiment [2] (setting [3]); 6.66 µM in experiment [2] (setting [4]). The IC50 was 7.3 µM in experiment [2] (setting [5]); 3.59 µM in experiment [2] (setting [6]); 3.65 µM in experiment [2] (setting [7]); 1.52 µM in experiment [2] (setting [8]); 1.96 µM in experiment [2] (setting [9]); 1.99 µM in experiment [2] (setting [10]). Besides, the results for the IC50 in experiment [2] (setting [11]) and in experiment [2] (setting [12]) were 0.928 µM and 1.23 µM, respectively.
